Source: patent publication US9907757B2, “Coated particles and pharmaceutical dosage forms” (Lek Pharmaceuticals d.d., priority 2003, dated 2018)

Experiment: Oxidative degradation of amorphous and polymorphic forms of atorvastatin at 80° C. in air and oxygen (liquid chromatography)
Format: physicochemical
Settings: hemicalcium salt; for Sensitivity to oxygen and oxidation (conclusion): from 80° C., 3 days, air/oxygen study; for Increase of degradation products %: in respect to reference samples stored at 4° C.
Procedure: The influence of oxygen on occurrence of degradation products of amorphous and four polymorphic forms of atorvastatin was investigated. The samples of amorphous atorvastatin and polymorphic forms I to IV of atorvastatin were exposed at 80° C. in normal (air) and oxygen atmosphere for 3 days. The assay of oxidation products was determined by liquid chromatography. All of the chosen forms of atorvastatin stored at 4° C. were analyzed as the reference samples.

[1] = stored at 80° C. 3 days in normal (air) atmosphere
[2] = stored at 80° C. 3 days in oxygen atmosphere

| SMILES | Sensitivity to oxygen and oxidation (conclusion) (listed as amorphous atorvastatin) | Increase of degradation products % [1] [%] | Increase of degradation products % [2] [%] | Sensitivity to oxygen and oxidation (conclusion) |
| --- | --- | --- | --- | --- |
| CC(C)c1c(C(=O)Nc2ccccc2)c(-c2ccccc2)c(-c2ccc(F)cc2)n1CC[C@@H](O)C[C@@H](O)CC(=O)O.CC(C)c1c(C(=O)Nc2ccccc2)c(-c2ccccc2)c(-c2ccc(F)cc2)n1CC[C@@H](O)C[C@@H](O)CC(=O)O.CC(C)c1c(C(=O)Nc2ccccc2)c(-c2ccccc2)c(-c2ccc(F)cc2)n1CC[C@@H](O)C[C@@H](O)CC(=O)[O-].CC(C)c1c(C(=O)Nc2ccccc2)c(-c2ccccc2)c(-c2ccc(F)cc2)n1CC[C@@H](O)C[C@@H](O)CC(=O)[O-].[Ca+2] (relative stereo) [Amorphous ATV, (R-(R*,R*))-2-(4-fluorophenyl-beta, delta-dihydroxy-5-(1-methylethyl)-3-phenyl-4-((phenylamino)carbonyl)-1H-pyrrole-1-heptanoic acid hemicalcium salt] | highly sensitive to oxidation | 1.04 | 3.4 |  |
| CC(C)c1c(C(=O)Nc2ccccc2)c(-c2ccccc2)c(-c2ccc(F)cc2)n1CC[C@@H](O)C[C@@H](O)CC(=O)O.CC(C)c1c(C(=O)Nc2ccccc2)c(-c2ccccc2)c(-c2ccc(F)cc2)n1CC[C@@H](O)C[C@@H](O)CC(=O)O.CC(C)c1c(C(=O)Nc2ccccc2)c(-c2ccccc2)c(-c2ccc(F)cc2)n1CC[C@@H](O)C[C@@H](O)CC(=O)[O-].CC(C)c1c(C(=O)Nc2ccccc2)c(-c2ccccc2)c(-c2ccc(F)cc2)n1CC[C@@H](O)C[C@@H](O)CC(=O)[O-].[Ca+2] (relative stereo) [Crystalline form I, (R-(R*,R*))-2-(4-fluorophenyl-beta, delta-dihydroxy-5-(1-methylethyl)-3-phenyl-4-((phenylamino)carbonyl)-1H-pyrrole-1-heptanoic acid hemicalcium salt] |  | 0.04 | 0.07 | stable to oxygen and oxidation |
| CC(C)c1c(C(=O)Nc2ccccc2)c(-c2ccccc2)c(-c2ccc(F)cc2)n1CC[C@@H](O)C[C@@H](O)CC(=O)O.CC(C)c1c(C(=O)Nc2ccccc2)c(-c2ccccc2)c(-c2ccc(F)cc2)n1CC[C@@H](O)C[C@@H](O)CC(=O)O.CC(C)c1c(C(=O)Nc2ccccc2)c(-c2ccccc2)c(-c2ccc(F)cc2)n1CC[C@@H](O)C[C@@H](O)CC(=O)[O-].CC(C)c1c(C(=O)Nc2ccccc2)c(-c2ccccc2)c(-c2ccc(F)cc2)n1CC[C@@H](O)C[C@@H](O)CC(=O)[O-].[Ca+2] (relative stereo) [Crystalline form II, (R-(R*,R*))-2-(4-fluorophenyl-beta, delta-dihydroxy-5-(1-methylethyl)-3-phenyl-4-((phenylamino)carbonyl)-1H-pyrrole-1-heptanoic acid hemicalcium salt] |  | 0.25 | 0.71 | slightly sensitive to oxidation |
| CC(C)c1c(C(=O)Nc2ccccc2)c(-c2ccccc2)c(-c2ccc(F)cc2)n1CC[C@@H](O)C[C@@H](O)CC(=O)O.CC(C)c1c(C(=O)Nc2ccccc2)c(-c2ccccc2)c(-c2ccc(F)cc2)n1CC[C@@H](O)C[C@@H](O)CC(=O)O.CC(C)c1c(C(=O)Nc2ccccc2)c(-c2ccccc2)c(-c2ccc(F)cc2)n1CC[C@@H](O)C[C@@H](O)CC(=O)[O-].CC(C)c1c(C(=O)Nc2ccccc2)c(-c2ccccc2)c(-c2ccc(F)cc2)n1CC[C@@H](O)C[C@@H](O)CC(=O)[O-].[Ca+2] (relative stereo) [Crystalline form III, (R-(R*,R*))-2-(4-fluorophenyl-beta, delta-dihydroxy-5-(1-methylethyl)-3-phenyl-4-((phenylamino)carbonyl)-1H-pyrrole-1-heptanoic acid hemicalcium salt] |  | 0.11 | 0.47 | slightly sensitive to oxidation |
| CC(C)c1c(C(=O)Nc2ccccc2)c(-c2ccccc2)c(-c2ccc(F)cc2)n1CC[C@@H](O)C[C@@H](O)CC(=O)O.CC(C)c1c(C(=O)Nc2ccccc2)c(-c2ccccc2)c(-c2ccc(F)cc2)n1CC[C@@H](O)C[C@@H](O)CC(=O)O.CC(C)c1c(C(=O)Nc2ccccc2)c(-c2ccccc2)c(-c2ccc(F)cc2)n1CC[C@@H](O)C[C@@H](O)CC(=O)[O-].CC(C)c1c(C(=O)Nc2ccccc2)c(-c2ccccc2)c(-c2ccc(F)cc2)n1CC[C@@H](O)C[C@@H](O)CC(=O)[O-].[Ca+2] (relative stereo) [Crystalline form IV, (R-(R*,R*))-2-(4-fluorophenyl-beta, delta-dihydroxy-5-(1-methylethyl)-3-phenyl-4-((phenylamino)carbonyl)-1H-pyrrole-1-heptanoic acid hemicalcium salt] |  | 1.14 | 3.67 | highly sensitive to oxidation |
